# Measurements taken from US20240415819A1, “MACROCYCLIC COMPOUNDS AS PROTEASOME SUBUNIT BETA TYPE-5 INHIBITORS” (Lead Discovery Center GmbH, priority 2021, published 2024).
# Assays:
# [1] = test system: A549 (human lung carcinoma cell line); assay: Glo assay of A549 cells (Table 3; ProteasomeGlo plating scheme); type: cell-based; settings: Homo sapiens; A549 cells; read-out: PGLo A549
# Method in brief: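 Compound treatment lasts 105 minutes at 37° C. under 5% CO2. Suc-LLVY-Glo substrate premixed with detection reagent (60 min at room temperature) is then added directly to the cells, and luminescence after 10-15 min in the dark gives the IC50 in nM.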
# [2] = test system: Hs 746T (human gastric carcinoma cell line); assay: 48 hr CTG viability assay, Hs 746T; type: cell-based; settings: Hs746T, 48 hr CTG, read-out: Hs 746T IC50
# Method in brief: (§1)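 Growth inhibition by compound over 48 h; IC50 (nM) derived from duplicate CellTiter-Glo luminescence readings across 0.0015–10 uM.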
# [3] = target: T1, β5 subunit of the human constitutive proteasome (CPS) (Homo sapiens, UniProt P28074); assay: β5 inhibition assay, human constitutive proteasome (Suc-LLVY-AMC); type: biochemical; settings: IC50 class, Suc-LLVY-AMC substrate
# T1 construct: purchased Boston Biochem E-360
# Description: The enzymatic activity of the β5 subunit of the human constitutive proteasome (CPS) is analyzed. In another assay, which differs from the assay of the human constitutive proteasome only in using the human immunoproteasome (IPS) the enzymatic activity of the β5 subunit of the human immunoproteasome (IPS) is analyzed. […] Inhibition is indicated as IC50 [nM] (“-”=not measured).
# [4] = test system: RPMI 8226 (B lymphocyte cell line, multiple myeloma); assay: 48 hr CTG viability assay, RPMI 8226; type: cell-based; settings: Homo sapiens, RPMI-8226; 48 hr CTG; read-out: RPMI-8226 IC50
# Method in brief: as §1
# [5] = target: T2, β5 subunit of the human immunoproteasome (IPS) (Homo sapiens, UniProt P28062); assay: β5 inhibition assay, human immunoproteasome (Suc-LLVY-AMC); type: biochemical; settings: IC50 class, Suc-LLVY-AMC substrate
# T2 construct: purchased Boston Biochem E-370
# Method in brief: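 Human immunoproteasome (1 nM final) was preincubated 10 min at RT with compound in 100 mM HEPES pH 7.5, 50 mM NaCl, 0.02% SDS, 1 mM DTT. Suc-LLVY-AMC (22.6 μM final) was then added for 4 h at RT in the dark. After stopping with 1 μM bortezomib, AMC fluorescence was read (ex 355/em 460 nm).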
# [6] = test system: MM1 S (B lymphoblast cell line); assay: 48 hr CTG viability assay, MM1S; type: cell-based; settings: Homo sapiens, 48 hr CTG, read-out: MM1S IC50
# Method in brief: as §1
IC50 [1],IC50 [2],IC50 [3],IC50 [4],IC50 [5],IC50 [6],Compound
< 100 nM,< 100 nM,< 100 nM,< 100 nM,< 100 nM,< 100 nM,"COc1cccc(CCOCCC(=O)N[C@H]2CC(=O)N3CCCC(CCOc4ccc(C)c(c4)CNC(=O)[C@H](CCc4ccccc4)NC2=O)C3)c1 (stereo partly drawn) [Compound 581, 3-(3-methoxyphenethoxy)-N-((9S,12S)-5^4-methyl-8,11,14-trioxo-9-phenethyl-4-oxa-7,10-diaza-1(3,1)-piperidina-5(1,3)-benzenacyclotetradecaphane-12-yl)propanamide]"
< 100 nM,< 100 nM,< 100 nM,< 100 nM,< 100 nM,< 100 nM,"Cc1ccc2cc1CNC(=O)[C@H](CCc1ccccc1)NC(=O)[C@@H](NC(=O)C13CC(N)(C1)C3)CC(=O)N1CCCC(CCO2)C1 (stereo partly drawn) [Compound 662, 3-amino-N-((9S,12S)-5^4-methyl-8,11,14-trioxo-9-phenethyl-4-oxa-7,10-diaza-1(3,1)-piperidina-5(1,3)-benzenacyclotetradecaphane-12-yl)bicyclo[1.1.1]pentane-1-carboxamide]"
< 100 nM,< 100 nM,< 100 nM,< 100 nM,< 100 nM,< 100 nM,"Cc1ccc2cc1CNC(=O)[C@H](CCc1ccccc1)NC(=O)[C@@H](NC(=O)CCNC(=O)C1CC3(CCC3)C1)CC(=O)N1CCCC(CCO2)C1 (stereo partly drawn) [Compound 616, N-(3-(((9S,12S)-5^4-methyl-8,11,14-trioxo-9-phenethyl-4-oxa-7,10-diaza-1(3,1)-piperidina-5(1,3)-benzenacyclotetradecaphane-12-yl)amino)-3-oxopropyl)spiro[3.3]heptane-2-carboxamide]"
< 100 nM,< 100 nM,< 100 nM,< 100 nM,< 100 nM,< 100 nM,"Cc1ccc2cc1CNC(=O)[C@H](CCc1ccccc1)NC(=O)[C@@H](NC(=O)CCN1CCC3(CCCCC3)CC1)CC(=O)N1CCCC(CCO2)C1 (stereo partly drawn) [Compound 608, N-((9S,12S)-5^4-methyl-8,11,14-trioxo-9-phenethyl-4-oxa-7,10-diaza-1(3,1)-piperidina-5(1,3)-benzenacyclotetradecaphane-12-yl)-3-(3-azaspiro[5.5]undecan-3-yl)propanamide]"
< 100 nM,< 100 nM,< 100 nM,< 100 nM,< 100 nM,< 100 nM,"Cc1ccc2cc1CNC(=O)[C@H](CCc1ccccc1)NC(=O)[C@@H](NC(=O)CCOCC1CC3(CCC3)C1)CC(=O)N1CCCC(CCO2)C1 (stereo partly drawn) [Compound 615, N-((9S,12S)-5^4-methyl-8,11,14-trioxo-9-phenethyl-4-oxa-7,10-diaza-1(3,1)-piperidina-5(1,3)-benzenacyclotetradecaphane-12-yl)-3-(spiro[3.3]heptan-2-ylmethoxy)propanamide]"
< 100 nM,< 100 nM,< 100 nM,< 100 nM,< 100 nM,< 100 nM,"COc1cccc(CCCOCCC(=O)N[C@H]2CC(=O)N3CCCC(CCOc4ccc(C)c(c4)CNC(=O)[C@H](CCc4ccccc4)NC2=O)C3)c1 (stereo partly drawn) [Compound 607, 3-(3-(3-methoxyphenyl)propoxy)-N-((9S,12S)-5^4-methyl-8,11,14-trioxo-9-phenethyl-4-oxa-7,10-diaza-1(3,1)-piperidina-5(1,3)-benzenacyclotetradecaphane-12-yl)propanamide]"
< 100 nM,< 100 nM,< 100 nM,< 100 nM,< 100 nM,< 100 nM,"Cc1ccc2cc1CNC(=O)[C@H](CCc1ccccc1)NC(=O)[C@@H](NC(=O)CCOCC1CC3CCC1C3)CC(=O)N1CCCC(CCO2)C1 (stereo partly drawn) [Compound 614, 3-(bicyclo[2.2.1]heptan-2-ylmethoxy)-N-((9S,12S)-5^4-methyl-8,11,14-trioxo-9-phenethyl-4-oxa-7,10-diaza-1(3,1)-piperidina-5(1,3)-benzenacyclotetradecaphane-12-yl)propanamide]"
< 100 nM,< 100 nM,< 100 nM,< 100 nM,< 100 nM,< 100 nM,"Cc1ccc2cc1CNC(=O)[C@H](CCc1ccccc1)NC(=O)[C@@H](NC(=O)CCOc1ccccc1)CC(=O)N1CCCC(CCO2)C1 (stereo partly drawn) [Compound 591, N-((9S,12S)-5^4-methyl-8,11,14-trioxo-9-phenethyl-4-oxa-7,10-diaza-1(3,1)-piperidina-5(1,3)-benzenacyclotetradecaphane-12-yl)-3-phenoxypropanamide]"
< 100 nM,< 100 nM,< 100 nM,< 100 nM,< 100 nM,< 100 nM,"Cc1ccc2cc1CNC(=O)[C@H](CCc1ccccc1)NC(=O)[C@@H](NC(=O)C1CCC3(CCOCC3)CC1)CC(=O)N1CCCC(CCO2)C1 (stereo partly drawn) [Compound 584, N-((9S,12S)-5^4-methyl-8,11,14-trioxo-9-phenethyl-4-oxa-7,10-diaza-1(3,1)-piperidina-5(1,3)-benzenacyclotetradecaphane-12-yl)-3-oxaspiro[5.5]undecane-9-carboxamide]"
< 100 nM,< 100 nM,< 100 nM,< 100 nM,< 100 nM,< 100 nM,"CC(=O)N[C@H]1CC(=O)N2CCCC(CCOc3ccc(C)c(c3)CNC(=O)[C@H](C3Cc4ccccc4C3)NC1=O)C2 (stereo partly drawn) [Compound 685, N-((9S,12S)-9-(2,3-dihydro-1H-inden-2-yl)-5^4-methyl-8,11,14-trioxo-4-oxa-7,10-diaza-1(3,1)-piperidina-5(1,3)-benzenacyclotetradecaphane-12-yl)acetamide]"
< 100 nM,< 100 nM,< 100 nM,< 100 nM,< 100 nM,< 100 nM,"Cc1ccc2cc1CNC(=O)[C@H](CCc1ccccc1)NC(=O)[C@@H](NS(=O)(=O)Cc1ccccc1F)CC(=O)N1CCCC(CCO2)C1 (stereo partly drawn) [Compound 636, 1-(2-fluorophenyl)-N-((9S,12S)-5^4-methyl-8,11,14-trioxo-9-phenethyl-4-oxa-7,10-diaza-1(3,1)-piperidina-5(1,3)-benzenacyclotetradecaphane-12-yl)methanesulfonamide]"
< 100 nM,< 100 nM,< 100 nM,< 100 nM,< 100 nM,< 100 nM,"Cc1ccc2cc1CNC(=O)[C@H](CCc1ccccc1)NC(=O)[C@@H](NC(=O)CCNS(=O)(=O)c1ccc(OCC3CCCCC3)cc1)CC(=O)N1CCCC(CCO2)C1 (stereo partly drawn) [Compound 672, 3-((4-(cyclohexylmethoxy)phenyl)sulfonamido)-N-((9S,12S)-5^4-methyl-8,11,14-trioxo-9-phenethyl-4-oxa-7,10-diaza-1(3,1)-piperidina-5(1,3)-benzenacyclotetradecaphane-12-yl)propanamide]"
< 100 nM,< 100 nM,< 100 nM,< 100 nM,< 100 nM,< 100 nM,"CC(C)(CO)C(=O)N[C@H]1CC(=O)N2CCCC(CCOc3ccc(F)c(c3)CNC(=O)[C@H](CCc3ccccc3)NC1=O)C2 (stereo partly drawn) [Compound 684, N-((9S,12S)-5^4-fluoro-8,11,14-trioxo-9-phenethyl-4-oxa-7,10-diaza-1(3,1)-piperidina-5(1,3)-benzenacyclotetradecaphane-12-yl)-3-hydroxy-2,2-dimethylpropanamide]"
< 100 nM,< 100 nM,< 100 nM,< 100 nM,< 100 nM,< 100 nM,"Cc1ccc2cc1CNC(=O)[C@H](CCc1ccncc1)NC(=O)[C@@H](NC(=O)Cc1ccc(N)cc1C)CC(=O)N1CCCC(CCO2)C1 (stereo partly drawn) [Compound 654, 2-(4-amino-2-methylphenyl)-N-((9S,12S)-5^4-methyl-8,11,14-trioxo-9-(2-(pyridin-4-yl)ethyl)-4-oxa-7,10-diaza-1(3,1)-piperidina-5(1,3)-benzenacyclotetradecaphane-12-yl)acetamide]"
< 100 nM,< 100 nM,< 100 nM,< 100 nM,< 100 nM,< 100 nM,"Cc1ccc2cc1CNC(=O)[C@H](CCc1cccnc1)NC(=O)[C@@H](NC(=O)Cc1ccc(N)cc1C)CC(=O)N1CCCC(CCO2)C1 (stereo partly drawn) [Compound 645, 2-(4-amino-2-methylphenyl)-N-((9S,12S)-5^4-methyl-8,11,14-trioxo-9-(2-(pyridin-3-yl)ethyl)-4-oxa-7,10-diaza-1(3,1)-piperidina-5(1,3)-benzenacyclotetradecaphane-12-yl)acetamide]"
